Experimental data reported in US20150190416A1, “FILAGGRIN PRODUCTION PROMOTER, THERAPEUTIC AGENT FOR DISEASES ASSOCIATED WITH REDUCTION IN PRODUCTION OF FILAGGRIN, AND METHOD FOR SCREENING FOR SAID THERAPEUTIC AGENT” (KYOTO UNIVERSITY, priority 2012, published 2015).

How the values were obtained:
FLG mRNA = FLG mRNA expression-increasing effect in NHEK cells, real-time PCR (Example 2); assay type: cell-based, human; details: 10 nM, with or without calcium priming
Experimental: In this example, the FLG mRNA expression-increasing effect of Compound 1 or Compound 2 was confirmed by using NHEK cells.
1) 5×10^4 cells/well of NHEK cells (Invitrogen) were plated on a 24-well plate, and then 500 μl of a culture medium containing a medium for proliferating normal human epidermal keratinocytes (HuMedia-KG2, KURABO INDUSTRIES LTD.) supplemented with hEGF (0.1 ng/ml), insulin (10 μg/ml), hydrocortisone (0.5 μg/ml), gentamycin (50 μg/ml), amphotericin B (50 ng/ml), and bovine brain pituitary extract (BPE) (0.4%, v/v) were added to the plate, and the cells were cultured under the conditions of 37° C. and 5% CO2. Next, after culture under the conditions of the following step 2) or 3), a sample was prepared. […]
4) An extraction reagent (TRIzol™, Invitrogen) was used, and according to the manufacturer's protocol, total RNA was extracted from each of cells treated with the medicament (Compound 1 or Compound 2) in the steps 2) and 3). […] Next, real-time PCR was conducted by using the following primers and SYBR™ Premix Ex Taq (Takara) with a CFX96 real-time PCR instrument (Bio-Rad Laboratories, Inc.) according to the manufacturer's protocol, and the amount of FLG mRNA was measured. […]

FLG promoter = experiment: Transcription-activating effect on FLG promoter, luciferase assay in NHEK cells (Example 1); assay type: cell-based, human; details: 1 μM (Comparative Compound 2: 1 μM or 0.1 μM), 3 days
Experimental: In this example, the transcription activity on FLG promoter of an N-quinolylbenzamide derivative (Compound 1) was confirmed by using neonatal normal human epidermal keratinocytes (NHEK cells). The transcription activity of the FLG promoter was measured by luciferase assay.
1) 1.2×10^5 cells/ml of NHEK cells (KURABO INDUSTRIES LTD.) were plated on a 96-well plate at 80 μl/well (9.6×10^3 cells/well), and 100 μl of a culture medium containing a medium for proliferating normal human epidermal keratinocytes (HuMedia-KG2, KURABO INDUSTRIES LTD.) supplemented with human epidermal growth factor (hEGF) (0.1 ng/ml), insulin (10 μg/ml), hydrocortisone (0.5 μg/ml), gentamycin (50 μg/ml), amphotericin B (50 ng/ml), and bovine brain pituitary extract (BPE) (0.4%, v/v) were added to the plate, and the cells were cultured under the conditions of 37° C. and 5% CO2. […]
4) 3 days after the addition of the medicament in the step 3), reagents for luciferase assay (Bright-Glo™ Luciferase Assay System, Promega Corporation) were used and the luciferase activity was measured according to the manufacturer's protocol. […] After standing at rest for two minutes, 70 μl thereof were subjected to the measurement of the absorbance of luciferase.

| SMILES | FLG mRNA expression (GAPDH ratio) (FLG mRNA) | transcription activity on FLG promoter (FLG promoter) |
| --- | --- | --- |
| CCc1ccc(OCc2ccccc2C(=O)Nc2ccc3nc(C)cc(N)c3c2)cc1.Cl [Compound 1, N-(4-Amino-2-methyl-6-quinolyl)-2-[(4-ethylphenoxy)methyl]benzamide hydrochloride] | increases the FLG mRNA expression | had the transcription activity on FLG promoter |
| O=C(CCCCCN1C(=O)c2cccc3cccc(c23)C1=O)NO [Comparative Compound 2, 6-(1,3-Dioxo-1H,3H-benzo[de]isoquinolin-2-yl)hexanoic acid hydroxyamide, reference compound] |  | the transcription activity on FLG promoter was observed |
| CC[C@H](C)[C@H]1O[C@]2(CC[C@@H]1C)C[C@@H]1C[C@@H](C/C=C(\C)[C@@H](O[C@H]3C[C@H](OC)[C@@H](O[C@H]4C[C@H](OC)[C@@H](O)[C@H](C)O4)[C@H](C)O3)[C@@H](C)/C=C/C=C3\CO[C@@H]4[C@H](O)C(C)=C[C@@H](C(=O)O1)[C@]34O)O2 [Compound 2, Ivermectin, reference compound] | increases the FLG mRNA expression |  |
